From US7803930B2, “Antisense modulation of apolipoprotein B-expression” (Isis Pharmaceuticals, Inc., priority 2002, dated 2010) come the findings set out here.

In the oligonucleotide strings, read from the 5' end, every base follows the letter of its sugar. An asterisk marks phosphorothioate; unmarked linkages are phosphodiester. Other units and linkages are bracketed, terminal groups are in braces. A string of capitals states the bases alone. e = 2'-O-(2-methoxyethyl) (MOE); [5mC] = 5-methylcytosine; d = 2'-deoxy (DNA)

In data set [1] the test system is Cynomolgous monkey apolipoprotein B mRNA. Description: Apolipoprotein B mRNA in primary Cynomolgous monkey hepatocytes, real-time PCR. The format is cell-based. The conditions noted are these: for % Inhibition of apolipoprotein B mRNA: primary Cynomolgous monkey hepatocytes; for inhibition of apolipoprotein B mRNA expression: Cynomolgous monkey primary hepatocytes. In outline:
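Primary cynomolgus hepatocytes treated with antisense oligonucleotides at 10, 50, 150 or 300 nM (some sets 10–150 nM) for 24 or 48 h, depending on the set. mRNA quantified by real-time PCR using human apoB and GAPDH primers/probes. Values are percent inhibition normalized to untreated cells, averaged over 2–6 experiments.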
On the technique in general: Quantitative PCR measures a nucleic acid by following its amplification.

Data set [2] relates to human apolipoprotein(a) mRNA. Description: Apolipoprotein(a) mRNA expression in primary human hepatocytes, real-time PCR. The conditions noted are these: 24 hours; for % Change in apolipoprotein(a) mRNA expression following antisense inhibition of apolipoprotein B: primary human hepatocytes; for expression of apolipoprotein(a) mRNA: human primary hepatocytes, 5, 10, 50 or 150 nM. Format: cell-based. As for the experimental part: Primary human hepatocytes (InVitro Technologies, Baltimore, Md.), cultured and transfected as described herein, were treated with 5, 10, 50 or 150 nM of ISIS 271009 (SEQ ID NO: 319), 281625 (SEQ ID NO: 224), 301012 (SEQ ID NO: 247) or 301027 (SEQ ID NO: 262). Cells were also treated with 50 or 150 nM of the control oligonucleotides ISIS 113529 (SEQ ID NO: 859) or ISIS 13650 (SEQ ID NO: 806). Untreated cells served as a control. Following 24 hours of oligonucleotide treatment, apolipoprotein(a) mRNA expression was measured by quantitative real-time PCR as described in other examples herein.
Probes and primers to human apolipoprotein(a) were designed to hybridize to a human apolipoprotein(a) sequence, using published sequence information (GenBank accession number NM_005577.1, incorporated herein as SEQ ID NO: 860). For human apolipoprotein(a) the PCR primers were: […]
forward primer: […] (SEQ ID NO: 861)
reverse primer: TGCGTCTGAGCATTGCGT (SEQ ID NO: 862) and the PCR probe was: FAM-[…]-TAMRA (SEQ ID NO: 863) where FAM is the fluorescent dye and TAMRA is the quencher dye.
Data are the average of three experiments and are expressed as percent inhibition relative to untreated controls.

Another data set relates to apolipoprotein B protein. Description: Apolipoprotein B protein secreted from primary Cynomolgous monkey hepatocytes, ELISA.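 As to % Reduction in secreted apolipoprotein B protein: normalized to untreated control cells.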 The conditions noted are these: for % Reduction in secreted apolipoprotein B protein: primary Cynomolgous monkey hepatocytes. The format is cell-based. In a few lines: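 Primary cynomolgus hepatocytes treated with oligonucleotide at 150 and 300 nM, or 50 and 150 nM for some compounds; secreted apoB protein quantified by apoB-specific ELISA. Values are means of 3 experiments.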
For orientation: An ELISA detects its analyte on a solid surface through an enzyme-linked reagent.

Data set [3] in a line: Time course at two doses in female C57BL/6 mice (Example 49): AST and ALT levels. Format: in vivo, mouse. As for the experimental part: Female C57BL/6 mice were divided into two groups—one group receiving oligonucleotide treatment and control animals receiving saline treatment. After overnight fasting, mice were dosed intraperitoneally twice a week with saline or 25 mg/kg or 50 mg/kg of ISIS 281625 (SEQ ID NO: 224), ISIS 301012 (SEQ ID NO: 247), or ISIS 301027 (SEQ ID NO: 262). After 2 weeks, a blood sample was taken from the tail of the mice and evaluated for liver enzyme. After 4 weeks, and study termination, animals were sacrificed and evaluated for liver enzyme levels.

The mark [4] stands for this setting: primary Cynomolgous hepatocytes, 150 nM (Table 47).
The mark [5] stands for this setting: primary Cynomolgous hepatocytes, 150 nM (Table 49), "+" = secretion increased.
Where [6] appears, read: primary Cynomolgous hepatocytes, 50 nM (Table 49), "+" = secretion increased.
Where [7] appears, read: 25 mg/kg i.p. twice a week, 2 weeks.
Setting [8] is: 25 mg/kg i.p. twice a week, 4 weeks.
The mark [9] stands for this setting: 50 mg/kg i.p. twice a week, 2 weeks.
The mark [10] stands for this setting: 50 mg/kg i.p. twice a week, 4 weeks.
[11] abbreviates: 25 or 50 mg/kg (either dose) i.p. twice a week, after 2 weeks.

For “113529 (antisense e[5mC]*eT*e[5mC]*eT*eT*dA*d[5mC]*dT*dG*dT*dG*d[5mC]*dT*dG*dT*eG*eG*eA*e[5mC]*eA) [compound 113529]”, the “% Inhibition of apolipoprotein B mRNA” value in data set [1] (150 nM, 24 hours) was found to be 5%; in data set [1] (150 nM, 24 hours (Table 48)) it was 11%; in data set [1] (150 nM, 48 hours), 42%; in data set [1] (300 nM, 24 hours), 19%; in data set [1] (300 nM, 24 hours (Table 46)), 28%; in data set [1] (300 nM, 48 hours), 13%. The entries for the “% Change in apolipoprotein(a) mRNA expression following antisense inhibition of apolipoprotein B” value in data set [2] (50 nM) and in data set [2] (150 nM) were “+14%” and −9%, respectively. The figures for the “% Reduction of monkey apolipoprotein B protein secretion” value with apolipoprotein B protein (setting [4]) and in the data set with apolipoprotein B protein (setting [5]) were 12% and 15%, respectively. Also, the “% Reduction in secreted apolipoprotein B protein” value is 11% with apolipoprotein B protein (150 nM, 24 hours); 18% in the data set on apolipoprotein B protein (150 nM, 48 hours); 12% in the data set on apolipoprotein B protein (300 nM, 24 hours); 8% in the data set on apolipoprotein B protein (300 nM, 48 hours).
For the substance “271009 (antisense eG*e[5mC]*e[5mC]*eT*e[5mC]*dA*dG*dT*d[5mC]*dT*dG*d[5mC]*dT*dT*d[5mC]*eG*e[5mC]*eG*e[5mC]*e[5mC]) [compound 271009]”, the “% Inhibition of apolipoprotein B mRNA” value in data set [1] (10 nM, 24 hours (Table 48)) is recorded as 42%; in data set [1] (50 nM, 24 hours (Table 48)), 66%; in data set [1] (150 nM, 24 hours (Table 48)), 69%. For the same substance, the “% Change in apolipoprotein(a) mRNA expression following antisense inhibition of apolipoprotein B” value is reported as “+70%” in data set [2] (5 nM), “+31%” in data set [2] (10 nM), “+25%” in data set [2] (50 nM) and −47% in data set [2] (150 nM). Moreover, the “% Reduction of monkey apolipoprotein B protein secretion” value in the data set with apolipoprotein B protein (setting [6]) is recorded as “+30%”; in the data set on apolipoprotein B protein (setting [5]), 26%.
In the case of “281625 (antisense eA*eG*eG*eT*eT*dA*d[5mC]*d[5mC]*dA*dG*d[5mC]*d[5mC]*dA*d[5mC]*dA*eT*eG*e[5mC]*eA*eG) [compound 281625]”, the “% Inhibition of apolipoprotein B mRNA” value is listed as “+5%” in data set [1] (10 nM, 24 hours (Table 46), "+" = expression increased); 41% in data set [1] (50 nM, 24 hours (Table 46)); 35% in data set [1] (150 nM, 24 hours (Table 46), "+" = expression increased); 69% in data set [1] (300 nM, 24 hours (Table 46)). Moreover, the “% Change in apolipoprotein(a) mRNA expression following antisense inhibition of apolipoprotein B” value in data set [2] (5 nM) is −9%; in data set [2] (10 nM), −23%; in data set [2] (50 nM) it was −34%; in data set [2] (150 nM), “+32%”. For the same substance, the ALT is recorded as 21.2 IU/L in data set [3] (setting [7]), 31.8 IU/L in data set [3] (setting [8]), 30.8 IU/L in data set [3] (setting [9]) and 210.4 IU/L in data set [3] (setting [10]). The AST amounted to 40.8 IU/L in data set [3] (setting [7]), 75 IU/L in data set [3] (setting [8]), 44.4 IU/L in data set [3] (setting [9]) and 152.4 IU/L in data set [3] (setting [10]). The “% Reduction of monkey apolipoprotein B protein secretion” value with apolipoprotein B protein (primary Cynomolgous hepatocytes, 50 nM (Table 47)) is 6%; with apolipoprotein B protein (setting [4]), 13%.
As for “301012 (eG*e[5mC]*e[5mC]*eT*e[5mC]*dA*dG*dT*d[5mC]*dT*dG*d[5mC]*dT*dT*d[5mC]*eG*e[5mC]*eA*e[5mC]*e[5mC]) [compound 301012]”, the “% Inhibition of apolipoprotein B mRNA” value in data set [1] (10 nM, 24 hours) worked out at 24%; in data set [1] (10 nM, 48 hours) it was 76%; in data set [1] (50 nM, 24 hours), 60%; in data set [1] (50 nM, 48 hours) it was 77%; in data set [1] (150 nM, 24 hours), 56%; in data set [1] (150 nM, 48 hours), 88%. The “% Inhibition of apolipoprotein B mRNA” value was found to be 61% in data set [1] (300 nM, 24 hours) and 86% in data set [1] (300 nM, 48 hours). For the same substance, the “% Change in apolipoprotein(a) mRNA expression following antisense inhibition of apolipoprotein B” value in data set [2] (5 nM) is given as “+34%”; in data set [2] (10 nM), “+86%”; in data set [2] (50 nM), “+30%”; in data set [2] (150 nM) it was “+38%”. Further, the ALT is 22.4 IU/L in data set [3] (setting [7]), 24.8 IU/L in data set [3] (setting [8]), 23.2 IU/L in data set [3] (setting [9]) and 29.2 IU/L in data set [3] (setting [10]). Further, the AST in data set [3] (setting [7]) is on record as 37.2 IU/L; in data set [3] (setting [8]), 89.8 IU/L; in data set [3] (setting [9]) it was 38.4 IU/L; in data set [3] (setting [10]) it was 107.4 IU/L. Also, the “% Reduction in secreted apolipoprotein B protein” value was 31% in the data set on apolipoprotein B protein (150 nM, 24 hours); 25% with apolipoprotein B protein (150 nM, 48 hours); 10% in the data set with apolipoprotein B protein (300 nM, 24 hours); 17% in the data set with apolipoprotein B protein (300 nM, 48 hours).
As to “301027 (eG*e[5mC]*eT*e[5mC]*eA*d[5mC]*dT*dG*dT*dA*dT*dG*dG*dT*dT*eT*eT*eA*eT*e[5mC]; antisense) [compound 301027]”, the “% Inhibition of apolipoprotein B mRNA” value in data set [1] (10 nM, 24 hours (Table 48)) worked out at 40%; in data set [1] (50 nM, 24 hours (Table 48)), 54%; in data set [1] (150 nM, 24 hours (Table 48)), 67%. Besides, the “% Change in apolipoprotein(a) mRNA expression following antisense inhibition of apolipoprotein B” value is given as −16% in data set [2] (5 nM), −45% in data set [2] (10 nM), −39% in data set [2] (50 nM) and −43% in data set [2] (150 nM). Besides, the ALT in data set [3] (setting [7]) amounted to 27.2 IU/L; in data set [3] (setting [8]), 311.2 IU/L; in data set [3] (setting [9]) it was 34.8 IU/L; in data set [3] (setting [10]), 1194 IU/L. In addition, the AST is given as 55.4 IU/L in data set [3] (setting [7]), 537.6 IU/L in data set [3] (setting [8]), 64 IU/L in data set [3] (setting [9]) and 1884 IU/L in data set [3] (setting [10]). Further, the results for the “% Reduction of monkey apolipoprotein B protein secretion” value in the data set with apolipoprotein B protein (setting [6]) and with apolipoprotein B protein (setting [5]) were 25% and 31%, respectively.
Consider “ISIS 281625: SEQ ID NO: 224, 2′-MOE gapmer targeted to human apolipoprotein B (antisense eA*eG*eG*eT*eT*dA*d[5mC]*d[5mC]*dA*dG*d[5mC]*d[5mC]*dA*d[5mC]*dA*eT*eG*e[5mC]*eA*eG)”, for which, in data set [1] (10, 50, 150 or 300 nM, 24 hours), the “inhibition of apolipoprotein B mRNA expression” value is on record as “in a dose-dependent manner”. Besides, the “expression of apolipoprotein(a) mRNA” value in data set [2] is “decreased”. The “AST and ALT levels” value in data set [3] (setting [11]) is “remained close to those of saline”. Further, the “AST and ALT levels over saline treated animals” value in data set [3] (higher dose (50 mg/kg), after 4 weeks) is reported as “large increase”; in data set [3] (lower dose (25 mg/kg), after 4 weeks), “moderate increase”. The “secretion of apolipoprotein B protein (ELISA)” value in the data set on apolipoprotein B protein (primary Cynomolgous hepatocytes, 50 and 150 nM (statement after Table 49)) is given as “decrease”.
Consider “ISIS 301027: SEQ ID NO: 262, 2′-MOE gapmer targeted to human apolipoprotein B (antisense eG*e[5mC]*eT*e[5mC]*eA*d[5mC]*dT*dG*dT*dA*dT*dG*dG*dT*dT*eT*eT*eA*eT*e[5mC])”, for which the “inhibition of apolipoprotein B mRNA expression” value in data set [1] (10, 50 and 150 nM, 24 hours) is reported as “in a dose-dependent manner”. In data set [2], the “expression of apolipoprotein(a) mRNA” value was “decreased”. In addition, the “AST and ALT levels” value in data set [3] (setting [11]) is “small increase”; in data set [3] (either dose, after 4 weeks), “huge increase”.
